{"source": "patent US20100184685A1", "about": "(priority 2009, published 2010)", "key": {"post-operative pain [1]": {"test_system": "post-operative pain", "conditions": "in vivo"}, "post-operative pain [2]": {"test_system": "post-operative pain", "parameters": "species or system human", "conditions": "in vivo"}}, "note": "“And” between values parts separate entries of the source, which are not always exact repeats. Equal values may be shown once.", "data": [{"compound": "CCCCN1CCCCC1C(=O)Nc1c(C)cccc1C", "note": "(stereo not shown) [Marcaine]", "values": [{"measurement": "pain on the visual analog pain scale", "setting": "post-operative pain [1]", "value": "3-4 /10"}, {"measurement": "requirement for patient controlled analgesic (PCA) administration during hospitalization", "setting": "post-operative pain [1]", "value": "did not require any patient controlled analgesic (PCA) administration"}, {"measurement": "signs of infection at the previous infusion catheter sites", "setting": "post-operative pain [1]", "value": "without signs of infection"}, {"measurement": "pain level on the visual analog pain scale", "setting": "post-operative pain [2]", "value": "5-6 /10 and 4 /10"}]}]}
